Literature values in US20030168224A1, “Novel phosphorous-nitrogen compounds used as fireproofing agents in theroplastic molding materials and the production thereof” (priority 2000, published 2003).

Key:
[1] = prior-art product
[2] = prior-art product; remark: listed apart in the source

## N.O=C1NC(=O)NP(=S)(S)N1 [ammonium 4,6-dioxo-2-thiooxohexahydro-1,3,5,2-λ^5-triazaphosphorinane-2-thiolate]
[1]
  solubility in hot water: highly soluble
[2]
  decomposition temperature: 230 °C
